This note sets out measurements from publication PMC9645260, “Small-molecule inhibitors of P-Rex guanine-nucleotide exchange factors” (Small GTPases, 2022).

What is called remaining activity is the signal under treatment as a percentage of the control signal. In general, IC50 refers to the point on the concentration scale where inhibition reaches its midpoint.

In one assay the target is T1, P-Rex1 DH domain (Homo sapiens, UniProt Q8TCU6).
T1 construct: 200 nM iDH EE-P-Rex1 DH domain (compounds 11–29); made in house; host or cells: Sf9 cells (baculovirus)
The assay can be described thus: Liposome-based GEF activity assay, isolated P-Rex1 DH domain. Type of assay: biochemical. Particulars: 10 µM compound. The procedure: Full-length N-terminally EE-tagged P-Rex1, P-Rex2, the P-Rex1 DH and DHPH domains and the P-Rex2 DH domain were produced in Sf9 cells using baculoviral transduction and were purified using anti-EE beads, as previously described. Briefly, frozen pellets from 500 ml of Sf9 culture infected with P-Rex expressing high-titre baculovirus were resuspended in ice-cold lysis Sf9-cell lysis buffer 2 (1x PBS, 1% Triton X-100, 5 mM EGTA, 1 mM EDTA, 25 mM NaF, 20 mM β-glycerophosphate, 1 mM DTT, 100 µM PMSF, 10 μg/ml each of leupeptin, pepstatin A, aprotinin and antipain) for 5 min and then ultracentrifuged at 118,000 × g for 1 h at 4°C. Supernatants were incubated with pre-washed anti-EE beads for 90 min on ice with end-over-end rotation. Beads were washed 4 times in wash buffer (2x PBS, 0.1% Triton X-100, 1 mM EGTA) and 5 times in elution buffer (1x PBS, 10% glycerol, 1 mM DTT, 1 mM EGTA, 0.01% Na azide), and protein was eluted by incubation with elution buffer containing Ac-EEYMPME peptide as described above. Protein was concentrated in a YM-100 Centricon (Millipore) at 5000 × g at 4°C. Fatty acid-free BSA and glycerol were added to final concentrations of 2 mg/ml and 50%, respectively. Protein concentration and purity were determined by coomassie staining of SDS-PAGE gels. Full-length Tiam1, expressed in and purified from Sf9 cells, was a kind gift from Angeliki Malliri, CRUK Manchester Institute, UK. […]
Liposome-based GEF activity assays were carried out essentially as described, except that GEFs were incubated with inhibitor compounds prior to the assay. […] Small GTPases were isolated using anti-EE antibody-coupled Sepharose beads or glutathione Sepharose beads, as appropriate, by incubation on ice for 90 min with end-over-end rotation, four washes in ice-cold wash buffer and resuspension of beads in Ultima Gold scintillation fluid (Perkin Elmer). ^35S-GTPγS incorporation was assessed by scintillation counting (Packard 1600TR, Liquid Scintillation Analyser).

The target of another assay is T2, P-Rex1 DHPH domains (Homo sapiens, UniProt Q8TCU6).
T2 construct: 100 nM EE-P-Rex1 DHPH domains (PREX-in1, compounds 2–10 and 30–128); made in house; host or cells: Sf9 cells (baculovirus)
The assay is described as follows: Liposome-based GEF activity assay, isolated P-Rex1 DHPH domains. Type of assay: biochemical. Conditions: for P-Rex1 Rac-GEF activity reduced to / remaining activity at 10 µM: 10 µM compound; for P-Rex1 Rac-GEF activity reduced to: P-Rex1 DHPH domains; for IC50: liposome-based GEF assay, 200 nM prenylated EE-Rac2 as substrate, read-out: IC50 of inhibition of P-Rex1 DHPH Rac-GEF activity. The procedure:
Full-length N-terminally EE-tagged P-Rex1, P-Rex2, the P-Rex1 DH and DHPH domains and the P-Rex2 DH domain were produced in Sf9 cells using baculoviral transduction and were purified using anti-EE beads, as previously described. Briefly, frozen pellets from 500 ml of Sf9 culture infected with P-Rex expressing high-titre baculovirus were resuspended in ice-cold lysis Sf9-cell lysis buffer 2 (1x PBS, 1% Triton X-100, 5 mM EGTA, 1 mM EDTA, 25 mM NaF, 20 mM β-glycerophosphate, 1 mM DTT, 100 µM PMSF, 10 μg/ml each of leupeptin, pepstatin A, aprotinin and antipain) for 5 min and then ultracentrifuged at 118,000 × g for 1 h at 4°C. Supernatants were incubated with pre-washed anti-EE beads for 90 min on ice with end-over-end rotation. Beads were washed 4 times in wash buffer (2x PBS, 0.1% Triton X-100, 1 mM EGTA) and 5 times in elution buffer (1x PBS, 10% glycerol, 1 mM DTT, 1 mM EGTA, 0.01% Na azide), and protein was eluted by incubation with elution buffer containing Ac-EEYMPME peptide as described above. Protein was concentrated in a YM-100 Centricon (Millipore) at 5000 × g at 4°C. Fatty acid-free BSA and glycerol were added to final concentrations of 2 mg/ml and 50%, respectively. Protein concentration and purity were determined by coomassie staining of SDS-PAGE gels. Full-length Tiam1, expressed in and purified from Sf9 cells, was a kind gift from Angeliki Malliri, CRUK Manchester Institute, UK. The ITSN1 DHPH domains and Ect2 DHPH domains, produced in and purified from bacteria, were a kind gift from Kent Rossman, University of North Carolina, Chapel Hill, USA. The DOCK10 DHR2 domain, produced in and purified from bacteria, was a kind gift from Danni Fan, Institute of Cancer Research, London, UK. All small GTPase and GEF proteins were stored in aliquots at −80°C and were snap-frozen in liquid N2 after each use.
Liposome-based GEF activity assays were carried out essentially as described, except that GEFs were incubated with inhibitor compounds prior to the assay. GEFs (full-length P-Rex1, P-Rex2, and Tiam1, P-Rex1 DH and DHPH domains, P-Rex2 DH domain, ITSN1 DHPH domains, ECT2 DHPH domains or DOCK10 DHR2 domain) were diluted in 20 mM HEPES (pH 7.0 at 4°C), 200 mM KCl, 10% ethylene glycerol, 1% betaine, 500 µM EGTA, 0.01% azide. […] The final 10 µl samples contained GTPase, GEF and inhibitor at concentrations as stated, in 20 mM HEPES pH 7.5, 100 mM NaCl, 1 mM MgCl2, 1 mM EGTA, 1 mM DTT, 10 mg/ml fatty acid-free BSA, liposomes consisting of phosphatidylcholine, -serine and -inositol (200 µM each), with or without 10 µM PIP3, 1 µM GTPγS and 80 nM (1 µCi) ^35S-GTPγS. Positive controls contained additionally 2 mM EDTA to induce maximal GTP-loading of the GTPase. Samples were incubated at 30°C for 10 min, and reactions were stopped by the addition of 400 µl ice-cold wash buffer (1x PBS, 1 mM EGTA, 10 mM MgCl2, 1% Triton X-100, 100 µM GTP). Small GTPases were isolated using anti-EE antibody-coupled Sepharose beads or glutathione Sepharose beads, as appropriate, by incubation on ice for 90 min with end-over-end rotation, four washes in ice-cold wash buffer and resuspension of beads in Ultima Gold scintillation fluid (Perkin Elmer). ^35S-GTPγS incorporation was assessed by scintillation counting (Packard 1600TR, Liquid Scintillation Analyser).

Where [1] appears, read: 100 nM EE-P-Rex1 DHPH domains, 200 nM prenylated EE-Rac1, PREX-in1, compounds 2-10 and 30-128.

Molecules are shown by their SMILES.

T2 sequence (Q8TCU6 49-392 limits assumed): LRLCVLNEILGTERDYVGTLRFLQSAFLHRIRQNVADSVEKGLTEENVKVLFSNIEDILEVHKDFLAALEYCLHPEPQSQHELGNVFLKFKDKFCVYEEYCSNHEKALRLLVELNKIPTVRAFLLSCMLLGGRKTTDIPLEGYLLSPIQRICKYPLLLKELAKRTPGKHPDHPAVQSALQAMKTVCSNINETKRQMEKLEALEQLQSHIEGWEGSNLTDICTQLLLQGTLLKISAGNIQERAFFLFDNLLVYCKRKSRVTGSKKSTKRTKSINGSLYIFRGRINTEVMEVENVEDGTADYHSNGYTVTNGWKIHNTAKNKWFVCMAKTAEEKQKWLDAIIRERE
T1 sequence (Q8TCU6 49-240 limits assumed): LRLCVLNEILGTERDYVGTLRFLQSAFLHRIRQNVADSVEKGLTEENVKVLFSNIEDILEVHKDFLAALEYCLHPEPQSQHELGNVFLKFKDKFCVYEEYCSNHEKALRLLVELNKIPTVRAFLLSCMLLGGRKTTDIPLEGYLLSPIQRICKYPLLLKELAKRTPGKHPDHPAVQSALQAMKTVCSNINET

`CCc1[nH]nc2c1C(c1ccc(-c3ccc(Cl)cc3)o1)C(C#N)=C(N)O2` (stereo not shown) [#26]: the “P-Rex1 Rac-GEF activity reduced to” value at P-Rex1 DH domain (P-Rex1 DH domain) is “below 10%”. At P-Rex1 DH domain (200 nM EE-P-Rex1 DH domain, 200 nM prenylated EE-Rac1, compounds 11-29), the remaining activity at 10 µM was determined as 4%.
Regarding `COc1ccc(-c2[nH]nc3c2C(c2ccc(-c4ccc(OC)c(Cl)c4)o2)C(C#N)=C(N)O3)cc1` (stereo not shown) [#61], on P-Rex1 DHPH domains, the “P-Rex1 Rac-GEF activity reduced to” value is on record as “below 10%” and the IC50 was found to be 2000 nM. In addition, on P-Rex1 DHPH domains (setting [1]), the remaining activity at 10 µM was found to be 2%.
Turning to `COc1cc(NC(=O)c2ccc(-c3ccc(Cl)cc3)o2)cc(OC)c1` [#66], the “% P-Rex1 activity remaining” value at P-Rex1 DHPH domains (setting [1]) is 58%.
For `COc1ccc(-c2ccc(C3C(C#N)=C(N)Oc4n[nH]c(-c5ccc(C)cc5)c43)o2)cc1Cl` (stereo not shown) [#72], the “P-Rex1 Rac-GEF activity reduced to” value on P-Rex1 DHPH domains is reported as “below 10%”. The remaining activity at 10 µM on P-Rex1 DHPH domains (setting [1]) was determined as 1.69%.
As to `COc1ccc(-c2ccc(C3C(C#N)=C(N)Oc4n[nH]c(-c5ccc(Cl)cc5)c43)o2)cc1Cl` (stereo not shown) [#76], the “P-Rex1 Rac-GEF activity reduced to” value on P-Rex1 DHPH domains is given as “below 10%”. At P-Rex1 DHPH domains (setting [1]), the remaining activity at 10 µM was -2.19%.
Consider `N#CC1=C(N)Oc2n[nH]c(-c3ccc(C(F)(F)F)cc3)c2C1c1ccc(-c2ccc(Cl)cc2)o1` (stereo not shown) [#116], for which, on P-Rex1 DHPH domains, the “P-Rex1 Rac-GEF activity reduced to” value is on record as “below 10%” and the half-maximal inhibitory concentration (IC50) amounted to 2700 nM. The remaining activity at 10 µM on P-Rex1 DHPH domains (setting [1]) turned out to be 9%.
